The target in one experiment is T1, SfruOBP31 (Spodoptera frugiperda, UniProt A0A2H1W9W7). Description: 1-NPN fluorescence binding (titration of SfruOBP31 with 1-NPN). To be noted: binding curve of SfruOBP31 with 1-NPN. How it is done: To investigate the ligand binding ability of SfruOBP31, we used a fluorescence competitive binding assay using the fluorescent probe N-phenyl-1-naphthylamine (1-NPN). Binding experiments were performed on a microplate reader using a Greiner 96 Black Flat Bottom. […] The binding constant of the protein to 1-NPN was analyzed by assessing the continuous change of fluorescence value. Compounds of 2–20 µM concentration were added to the mixture of 2.0 µM 1-NPN and 2.0 µM protein or 2.0 µM 1-NPN alone to determine the binding rate of the ligands to the protein and the value of the fluorescence. The final fluorescence value was calculated as the fluorescence value after the addition of 1-NPN and protein with the competing ligand minus the fluorescence value after the addition of 1-NPN with the competing ligand only.
T1 sequence (A0A2H1W9W7 entry or part of it): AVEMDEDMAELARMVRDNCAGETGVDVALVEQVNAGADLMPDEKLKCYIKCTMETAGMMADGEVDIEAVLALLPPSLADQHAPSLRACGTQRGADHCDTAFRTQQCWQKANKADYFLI
The dissociation constants (K1-NPN) of SfruOBP31 were calculated using Graphpad Prism 8 software. The dissociation constant (Ki) of 1-NPN by competing ligands was calculated with the following formula using IC50 value: Ki = [IC50]/(1 + [1-NPN]/K1-NPN). Here, IC50 is the concentration of competing ligands when the fluorescence intensity reaches half of the initial fluorescence intensity of 1-NPN, and [1-NPN] indicates the concentration of 1-NPN [16]. […]
Regarding `c1ccc(Nc2cccc3ccccc23)cc1` [1-NPN, N-phenyl-1-naphthylamine], the “Bmax (1-NPN, printed in Figure 11A)” value is 702,842.

The target of another experiment is T1, SfruOBP31. Put plainly: fluorescence competitive binding assay with the probe 1-NPN. To be noted: competing ligand 2–20 µM, 2.0 µM 1-NPN, 2.0 µM protein; Ki = [IC50]/(1 + [1-NPN]/K1-NPN); Ki < 20 µM recognized as binding. Here is the method:
To investigate the ligand binding ability of SfruOBP31, we used a fluorescence competitive binding assay using the fluorescent probe N-phenyl-1-naphthylamine (1-NPN). Binding experiments were performed on a microplate reader using a Greiner 96 Black Flat Bottom. Among the ligands, we tested five host volatiles from the host plant Zea mays: decanal (97% purity, Shanghai Acmec Biochemical Co., Ltd., Shanghai, China), linalool (98% purity, Shanghai Acmec Biochemical Co., Ltd.), leaf alcohol (98% purity, Shanghai Acmec Biochemical Co., Ltd.), 1-nonanol (98% purity, Shanghai Acmec Biochemical Co., Ltd.), and cis-3-hexenyl acetate (98% purity, Shanghai Acmec Biochemical Co., Ltd.); four pheromones: (Z)-9-tetradecenyl acetate (93% purity, Shenzhen Regent Biochemical Technology Co., Ltd., Shenzhen, China), (Z)-11-hexadecenyl acetate (98% purity, Shanghai Bidd Medical Technology Co., Ltd., Shanghai, China), (Z)-7-dodecenyl acetate (90% purity, Shanghai Bidd Medical Technology Co., Ltd.), and (Z)-9-dodecenyl acetate (90% purity, Shanghai Bidd Medical Technology Co., Ltd.); and five pesticides: emamectin benzoate (90% purity, Energy Chemical), lufenuron (97.4% purity, Shanghai Yuanye Biotechnology Co., Ltd., Shanghai, China), chlorfenapyr (98% purity, Shanghai Yuanye Biotechnology Co., Ltd.), chlorantraniliprole (95% purity, Shanghai Yuanye Biotechnology Co., Ltd.), and lambda-cyhalothrin (96% purity, Guangdong Liwei Chemical Co., Ltd., Maoming, China). All chemicals used for testing and the fluorescent probe 1-NPN were dissolved in GC purify-grade methanol in a 400 µM solution. The 2.0 µM protein solution (in 10 mM HEPES and 100 mM NaCl buffer, pH 7.5) was titrated with 400 µM 1-NPN to a final concentration of 2–20 µM. The binding constant of the protein to 1-NPN was analyzed by assessing the continuous change of fluorescence value. Compounds of 2–20 µM concentration were added to the mixture of 2.0 µM 1-NPN and 2.0 µM protein or 2.0 µM 1-NPN alone to determine the binding rate of the ligands to the protein and the value of the fluorescence. The final fluorescence value was calculated as the fluorescence value after the addition of 1-NPN and protein with the competing ligand minus the fluorescence value after the addition of 1-NPN with the competing ligand only.
The dissociation constants (K1-NPN) of SfruOBP31 were calculated using Graphpad Prism 8 software. The dissociation constant (Ki) of 1-NPN by competing ligands was calculated with the following formula using IC50 value: Ki = [IC50]/(1 + [1-NPN]/K1-NPN). Here, IC50 is the concentration of competing ligands when the fluorescence intensity reaches half of the initial fluorescence intensity of 1-NPN, and [1-NPN] indicates the concentration of 1-NPN [16]. A threshold of Ki < 20 µM was recognized as binding.
The term Ki denotes the equilibrium dissociation constant of an inhibitor or competing ligand from its target. With `CC1(C)[C@H](C(=O)O[C@H](C#N)c2cccc(Oc3ccccc3)c2)[C@@H]1/C=C(\Cl)C(F)(F)F` (racemic) [lambda-cyhalothrin, reference compound], the inhibition constant (Ki) stood at 2.78 µM.
Take `CNC(=O)c1cc(Cl)cc(C)c1NC(=O)c1cc(Br)nn1-c1ncccc1Cl` [chlorantraniliprole, reference compound]: the Ki turned out to be 22.3 µM.
Take `C=CC(C)(O)CCC=C(C)C` (centres unmarked) [linalool]: the Ki was found to be 4.04 µM.
Turning to `O=C(NC(=O)c1c(F)cccc1F)Nc1cc(Cl)c(OC(F)(F)C(F)C(F)(F)F)cc1Cl` (centres unmarked) [lufenuron, reference compound], the Ki was found to be 37.6 µM.

The same experiment, now with this note: competing ligand 2–20 µM, 2.0 µM 1-NPN, 2.0 µM protein; Ki = [IC50]/(1 + [1-NPN]/K1-NPN); Ki < 20 µM recognized as binding; read-out: Ki.
Regarding `CCCCCCCCCO` [1-nonanol], the inhibition constant Ki was 14.2 µM.
On to `CCCC/C=C\CCCCCCCCOC(C)=O` [(Z)-9-tetradecenyl acetate], for which the inhibition constant (Ki) came to 5.02 µM.
`CCCC/C=C\CCCCCCCCCCOC(C)=O` [(Z)-11-hexadecenyl acetate]: the Ki turned out to be 5.4 µM.
Regarding `CC/C=C\CCOC(C)=O` [cis-3-hexenyl acetate], the inhibition constant Ki was 6.38 µM.
On the same count and under the same terms, the value for `CCCCCCCCCC=O` [decanal] was 19.6 µM; that for emamectin benzoate [reference compound] was 27.6 µM.

The experiment is the same for the next values; noted with them: competitive binding with 1-NPN; threshold Ki < 20 µM recognized as binding.
With `CCCC/C=C\CCCCCCCCOC(C)=O` [(Z)-9-tetradecenyl acetate], the “binding of SfruOBP31 to the ligand (in words)” value is given as “selectively binds”.
The same measure, in the same setting: the value for `CCCC/C=C\CCCCCCCCCCOC(C)=O` [(Z)-11-hexadecenyl acetate] was “selectively binds”.
Same read-out and setting: the result for `CNC(=O)c1cc(Cl)cc(C)c1NC(=O)c1cc(Br)nn1-c1ncccc1Cl` [chlorantraniliprole, reference compound] reads “lack of binding”; that for `O=C(NC(=O)c1c(F)cccc1F)Nc1cc(Cl)c(OC(F)(F)C(F)C(F)(F)F)cc1Cl` (centres unmarked) [lufenuron, reference compound], “lack of binding”.
For emamectin benzoate [reference compound], the “binding of SfruOBP31 to the ligand (in words)” value is recorded as “lack of binding”.

Staying with this experiment, now noted: read-out: Ki (unit inferred); competing ligand 2–20 µM, 2.0 µM 1-NPN, 2.0 µM protein; Ki < 20 µM recognized as binding.
Consider `CCOCn1c(-c2ccc(Cl)cc2)c(C#N)c(Br)c1C(F)(F)F` [chlorfenapyr, reference compound], for which the Ki is 8.1 µM.

For the origin of these results see PMC10056595, “Odorant-Binding Proteins and Chemosensory Proteins in Spodoptera frugiperda: From Genome-Wide Identification and Developmental Stage-Related Expression Analysis to the Perception of Host Plant Odors, Sex Pheromones, and Insecticides” (International Journal of Molecular Sciences, 2023).
